# Source: patent US20190328749A1, “FORMULATION OF LONG-ACTING LEVONORGESTREL BUTANOATE INJECTABLE DEPOT SUSPENSION” (Eastern Virginia Medical School, priority 2016, published 2019)
# Several values for one entry are separate records, joined by “and”; a condition that tells them apart may be missing. Identical values can stand only once.
# Columns and labels:
# [1] = uniformity of LB particle size distribution and concentration after dispersion/mixing and homogenization; assay type: physicochemical; settings: post LB dispersion in Part II & mixing with Part I
# [2] = particle size distribution of micronized LB drug substance (dry milled, wet milled, spray dried); assay type: physicochemical
# Experimental: FIG. 3 and FIG. 4 show typical particle size distributions and photomicrographs of LB drug substance prepared by dry milling. The dry milled LB powder was dispersed in 1% polysorbate 20 and three replicate measurements of the particle size distribution were made.
# FIG. 5 and FIG. 6 show typical particle size distributions and photomicrographs of LB drug substance prepared by wet milling. After wet milling for 15 minutes, the LB suspension was sampled and three replicate measurements of the particle size distribution were made.
# FIG. 7 and FIG. 8 show typical particle size distributions and photomicrographs of LB drug substance prepared by spray drying processes. The spray dried LB powder was dispersed in 0.5% polysorbate 80 and three replicate measurements of the particle size distribution were made.
# [3] = system: ovulation; assay: monkey study, time to return to ovulation / duration of action; assay type: in vivo, non-human primates
# [4] = system: ovulation; settings: women, single dose of 50 mg, micronized aqueous suspension, injected; cited from earlier work
# [5] = dry milled LB powder dispersed in 1% polysorbate 20, replicate runs
# [6] = spray dried LB powder dispersed in 0.5% polysorbate 80, replicate runs
# [7] = wet milled 15 minutes, LB suspension, replicate runs
compound,measurement,setting,value
"C#C[C@]1(OC(=O)CCC)CC[C@H]2[C@@H]3CCC4=CC(=O)CC[C@@H]4[C@H]3CC[C@@]21CC [LB, Levonorgestrel Butanoate]","Assay Results - Concentration of LB, Average",[1]; 15 minutes,20.03 mg/mL
same,Particle Size D50,[1]; 15 minutes,6.3 μm
same,Particle Size VMD,[1]; 15 minutes,8.1 μm
same,particle size D10,[1]; 15 minutes,1.4 μm
same,particle size D90,[1]; 15 minutes,17.1 μm
same,"Assay Results - Concentration of LB, Average",[1]; 30 minutes,20.00 mg/mL
same,Particle Size D50,[1]; 30 minutes,6.3 μm
same,Particle Size VMD,[1]; 30 minutes,8.1 μm
same,particle size D10,[1]; 30 minutes,1.4 μm
same,particle size D90,[1]; 30 minutes,17.2 μm
same,particle size D10,[2]; [5],5.3 μm and 5.1 μm and 4.3 μm
same,particle size D90,[2]; [5],89.5 μm and 62.2 μm and 65.0 μm
same,particle size Mean,[2]; [5],38.6 μm and 30.7 μm and 29.9 μm
same,particle size Median,[2]; [5],23.1 μm and 22.7 μm and 18.6 μm
same,particle size D10,[2]; [6],8.3 μm and 8.2 μm (2×)
same,particle size D90,[2]; [6],24.7 μm and 24.8 μm (2×)
same,particle size Median,[2]; [6],15.8 μm
same,particle size D10,[2]; [7],5.4 μm (2×) and 4.3 μm
same,particle size D90,[2]; [7],47.3 μm and 50.9 μm and 54.9 μm
same,particle size Mean,[2]; [7],23.2 μm and 25.2 μm and 26.9 μm
same,particle size Median,[2]; [7],18.0 μm and 18.4 μm and 21.0 μm
same,time to return to ovulation,[3],increases with increasing particle size of LB in the formulation and in many cases exceeding six months
same,"suppression of ovulation, duration",[4],5-6 months
